The text below walks through data of PubChem BioAssay AID489033 (Sanford-Burnham Center for Chemical Genomics, 2010).

Calls of active or inactive are those of the source. The rule behind the calls is not given here.

This assay concerns 697B B-cell line, NF-kB luciferase reporter luminescence. The assay is described as follows: NF-kB reporter inhibition in B cells, dose response, selectivity assay for T-cell antigen receptor NF-kB inhibitors, 697B cells, luminescence (AID 489033).
Turning to `Cc1cc(NC(=O)COC(=O)c2ccc(S(=O)(=O)N3CCCc4ccccc43)cc2)no1`, the IC50 (in general, the point on the concentration scale where inhibition reaches its midpoint) is > 80 µM (inactive).
The value for `CCCC(=O)NC(c1ccc(C(C)C)cc1)c1ccc2cccnc2c1O` (configuration not stated) was > 80 µM (inactive); that for `O=c1cc(-c2ccccc2)[nH]c2cc(F)ccc12` was > 80 µM (inactive).
The same measure for `COc1cc(NS(=O)(=O)c2ccc(OC)c(C)c2C)c(OC)cc1Cl`: > 80 µM (inactive).
For `Cc1ccc(/C=N/NC(=O)c2c(C)nc3ccc(Br)cn23)cc1`, the IC50 was > 80 µM (inactive).
As for `C/C=C/COC(=O)c1[nH]c2c(c1C)C(=O)CC(c1ccco1)C2` (configuration not stated), the IC50 was > 80 µM (inactive).
The value for `COC(=O)C(Cc1ccc(N(CCCl)CCCl)cc1)N=Cc1ccccc1O` (configuration not stated) was 0.31 µM; that for `CCN(CC)c1ccc(/C=C/c2ccc3ccc(OC)cc3[n+]2CC)cc1` was 2.84 µM; that for `O=C(Nc1ccc(N2CCCCC2)cc1)c1ccccn1` was 0.41 µM.
On to `CCC(C)(C)c1ccc(OCCCC[n+]2cccc(C)c2C)c(C(C)(C)CC)c1`, for which the half-maximal inhibitory concentration (IC50) is 16.2 µM.
Regarding `CCOC(=O)c1[nH]c(C)c(C(=O)Nc2cc(OC)ccc2OC)c1C`, the IC50 was > 80 µM (inactive).
On to `CC(=O)c1ccc(Oc2cc(C)nc(-n3nc(C)cc3C)n2)cc1`, for which the IC50 was > 80 µM (inactive).
The value for `COc1ccc(/C=c2/sc3n(c2=O)C(c2ccccc2OC)C2=C(N=3)c3ccccc3CC2)cc1O` (configuration not stated) was > 80 µM (inactive); that for `CCCCCCCCCCn1c2c(c(=N)c3c1CCC3)CCC2` was 2.68 µM.
`CCn1cc(C(=O)NC2CCCc3c2cnn3-c2cccc(C)c2C)cn1` (configuration not stated): the IC50 is > 80 µM (inactive).
Take `O[C@@H]1[C@@H](O)C=C2CCN3Cc4cc5c(cc4[C@H]1C23)OCO5` (some centres not stated): the half-inhibitory concentration (IC50) was 3.28 µM.
The same measure for `COc1ccc(N/N=C/c2c(C(=O)O)ccc3ccccc23)cc1`: 58.4 µM (inactive); for `CCCCC(=O)NC(c1ccc(N(C)C)cc1)c1ccc2cccnc2c1O` (configuration not stated): > 80 µM (inactive).
On to `COc1ccc(C2=NOC(C(=O)NCc3ccc(F)cc3)C2)cc1OC` (configuration not stated), for which the IC50 is > 80 µM (inactive).
For the compound `CCCCCCCCCCCCCCCC[n+]1cccc(C(=O)N(CC)CC)c1`, the IC50 is 3.3 µM.
Consider `COc1cccc(N2CCN(c3ncnc4c3cnn4-c3ccc(C)cc3C)CC2)c1`, for which the IC50 was 1.58 µM.
As to `COc1cc(/C=C/[N+](=O)[O-])ccc1OCc1cccc(C(=O)O)c1`, the 50% inhibitory concentration (IC50) was 12 µM.
`CC(C)(C)c1ccc(C(=O)O/N=C(\N)c2ccccn2)cc1`: the IC50 was 0.88 µM.
With `O=C(Cc1ccc(-c2ccccc2)cc1)NCc1ccccc1`, the IC50 was > 80 µM (inactive).
`CC#CC(=O)N1CCC(n2nccc2NC(=O)c2ccc3c(c2)OCO3)CC1`: the IC50 was > 80 µM (inactive).
In the case of `Cc1cc(-c2ccc(C)c(S(=O)(=O)N3CCN(c4ccc([N+](=O)[O-])cc4)CC3)c2)on1`, the IC50 is > 80 µM (inactive).
Turning to `COc1ccc(CNC(=O)c2c(C)oc3c2C(=O)c2ccccc2C3=O)cc1`, the IC50 is > 80 µM (inactive).
`Cc1cc(C)cc(NC(=O)c2cc(C)n(Cc3cccs3)c2C)c1`: the IC50 was 24.1 µM (inactive).
Regarding `COc1ccc(C(C(=O)NC2CCCCC2)N(C(=O)CCl)c2ccc(C)cc2)cc1` (configuration not stated), the 50% inhibitory concentration (IC50) is under 0.16 µM.
As for `Cc1ccc(O)c(NC(=O)CCC2CCCCC2)c1`, the IC50 is > 80 µM (inactive).
Regarding `Cc1cccc(N2CCN(C(=O)c3ccc(S(=O)(=O)N(C)c4ccccc4)cc3)CC2)c1C`, the IC50 was > 80 µM (inactive).
Regarding `COC(=O)Cc1[nH]n(-c2nc3ccccc3s2)c(=O)c1C(C)=Nc1ccc(OC)cc1`, the half-inhibitory concentration (IC50) is 4.93 µM.
As to `CCCC(=O)Nc1nc2ccc(S(=O)(=O)N3CCCCC3)cc2s1`, the IC50 was > 80 µM (inactive).
The value for `COc1cc(NS(=O)(=O)c2ccc(C)cc2)c2ncccc2c1` was 1.05 µM; that for `CCc1ccc(/C=N/NC(=O)c2cc(-c3ccncc3)nc3ccccc23)s1` was 4.09 µM; that for `Cc1c(C(=O)OC2CCCC2)[nH]c2c1C(=O)CC(c1ccco1)C2` (configuration not stated) was > 80 µM (inactive).
Regarding `CC(=O)O[C@H]1C(=O)[C@@]2(C)[C@H]([C@H](OC(=O)c3ccccc3)[C@]3(O)C[C@H](OC(=O)[C@H](O)[C@@H](NC(=O)c4ccccc4)c4ccccc4)C(C)=C1C3(C)C)[C@]1(OC(C)=O)CO[C@@H]1C[C@@H]2O`, the IC50 is > 80 µM (inactive).
The value for `C=C(C=O)C[C@@H]1C[C@H](O)C2OC3C[C@]4(C)OC5/C=C\CC6OC7C(CC=CCC6OC5CCCC4OC3CC2O1)OC1CC2OC3CC(=O)OC3C[C@@H](C)C[C@@]2(C)OC1C[C@@H]7C` (some centres not stated) was 1.02 µM; that for `COC(=O)c1cn(NC(=O)c2cc([N+](=O)[O-])ccc2F)c(=O)c2ccccc12` was 2.43 µM.
The value for `Cc1cc(C)nc(SCC(=O)Nc2ccnc3ccccc23)n1` was > 80 µM (inactive); that for `CCc1ccc(N2C(=O)C(Cl)=C(Nc3ccc(C(=O)N4CCCC4)cc3)C2=O)cc1` was 2.28 µM.
With `O=[N+]([O-])c1ccc(-c2nc(C(Cl)Cl)c3ccccc3n2)cc1`, the half-maximal inhibitory concentration (IC50) was 1.6 µM.
The value for `O=C(Nc1ccc(Cc2ccncc2)cc1)c1ccc(S(=O)(=O)N2CCCC2)cc1` was 5.3 µM.
On to `COc1ccc2nc(C)cc(N/N=C/c3ccc(F)cc3)c2c1`, for which the half-maximal inhibitory concentration (IC50) is 2.08 µM.
For the compound `Cc1c(C)c2ccc(OCC(=O)Nc3ccccn3)c(C)c2oc1=O`, the half-maximal inhibitory concentration (IC50) is 7.65 µM.
As for `O=C(c1cc(-c2ccncc2)nc2c(Cl)cccc12)N1CCN(c2ccccc2F)CC1`, the IC50 was > 80 µM (inactive).
As for `C#Cc1ccc([C@@H]2C=C(C(=O)N3CCN(Cc4ccccc4)CC3)O[C@H](OCCCCO)C2)cc1`, the IC50 is > 80 µM (inactive).
As to `COc1ccc(S(=O)(=O)Nc2cccc(-c3ccc4nncn4n3)c2)cc1F`, the IC50 was > 80 µM (inactive).
With `COc1ccc(OCC(=O)Nc2ccccc2N2CCCCC2)cc1`, the IC50 was > 80 µM (inactive).
Regarding `CCOc1ccccc1C(=O)N1CCN(c2cccc(Cl)c2)CC1`, the IC50 was > 80 µM (inactive).
Consider `Cc1cccc(NS(=O)(=O)c2ccc(-c3cnc(C4CC4)o3)cc2)c1`, for which the IC50 was > 80 µM (inactive).
The value for `Cc1cc(C)c2nc(C)cc(N/N=C/c3ccc(O)cc3)c2c1` was 3.49 µM.
The value for `O=C(NCCc1ccccc1)c1ccc2c(c1)OCCO2` was 1.12 µM; that for `COc1ccc(NC(=O)Cn2nnc(-c3ccccc3NS(=O)(=O)c3ccc(OC)cc3)n2)cc1` was > 80 µM (inactive); that for `O=C(Nc1ccc(Cl)c(S(=O)(=O)N2CCOCC2)c1)c1ccc(OCC2CCCO2)cc1` (configuration not stated) was 4.54 µM.
In the case of `CC(=O)NC(c1ccc2ccccc2c1)c1ccc2cccnc2c1O` (configuration not stated), the IC50 is > 80 µM (inactive).
The same measure for `COC(=O)Nc1ccc(S(=O)(=O)N2c3ccccc3CCC2C)cc1` (configuration not stated): > 80 µM (inactive); for `COC(=O)c1[nH]c2c(c1C)C(=O)CC(c1cccc(OC)c1)C2` (configuration not stated): > 80 µM (inactive).
Turning to `Cc1ccc2oc(/N=C(\N)NC(=O)C(C)(C)C)nc2c1`, the half-maximal inhibitory concentration (IC50) is 0.47 µM.
The same measure for `CC1=Nc2ccccc2/C1=C\c1sc(Nc2ccc(C)cc2)nc1O`: 61 µM (inactive).
With `CCOc1ccc(S(=O)(=O)NCc2ccccn2)cc1NC(=O)c1ccccc1F`, the IC50 was > 80 µM (inactive).
Regarding `CCOc1ccccc1C(=O)Nc1ccc2nc(N3CCN(c4ncccn4)CC3)cc(C)c2c1`, the half-maximal inhibitory concentration (IC50) was 4.69 µM.
